According to patent US7144982B2, “Polypeptides with therapeutic activity and methods of use” (University of Minnesota, priority 2000, dated 2006):
Where two headings read alike, the source gives them in different places. Ends that are not written are not given here.

Columns and labels:
Human red blood cells = type: cell-based; settings: for hemolysis: red cells of human, 1 h
Protocol: Human red blood cells were washed three times using phosphate buffered saline (PBS: 35 mM phosphate buffer, 0.15 M NaCl, pH 7.0) prior to performing the assay. One hundred μL of human red blood cells suspended in 0.4% (v/v) PBS was placed in eppendorf tubes, and 100 μL of serially diluted peptides in PBS was added (peptide concentration ranged from 1 μM to 100 μM). Tubes were incubated for 1 hr at 37° C. and centrifuged at 1000 g for 5 min. One hundred μL aliquots of the supernatant was then transferred to eppendorf tubes, and hemolysis was measured by absorbance at 414 nm. Zero percentage hemolysis and 100% hemolysis were determined in PBS and in 1% Triton-X 100, respectively. The hemolysis percentage was calculated using the following formula: % hemolysis=[(A414 in the peptide solution−A414 in PBS)/(A414 in 1% Triton-X 100−A414 in PBS)]×100.

E. coli 055:B5 LPS = test: Limulus amoebocyte lysate assay for LPS neutralization; type: biochemical; settings: for drop in LPS neutralizing activity relative to SC-4: SC-3: relative to either SC-4 or SC-5
Text: The ability of synthetic peptides to neutralize endotoxin was detected using the chromogenic QCL-1000 kit from BioWhittaker, Inc. (Walkersville, Md.) as described in their protocol. This method is quantitative for Gram-negative bacterial endotoxin (lipopolysaccharide, LPS). In the Limulus amebocyte lysate (LAL) assay, peptides that are active inhibit the LPS-mediated activation of a proenzyme (Young et al., J. Clin. Invest. 51, 1790–1797 (1972)) whose active form would release p-nitroaniline (pNA) from a colorless synthetic substrate (Ac-Ile-Glu-Ala-Arg-pNA), producing a yellow color (pNA) whose absorption is monitored spectrophotometrically at 405–410 nm. The initial rate of enzyme activation is proportional to the concentration of endotoxin present. The concentration of peptide required to bind to LPS and therefore to inhibit the Limulus amoebocyte lysate driven by 0.04 unit (or 0.01 ng) of E. coli 055:B5 LPS (from SIGMA) was determined by dose response.

[1] = test system: Pseudomonas aeruginosa type 1; test: Bactericidal assay, P. aeruginosa (P.a.); type: cell-based; settings: Table 4; SC-4 variants; SD about ±30%
Text: (§1) Pseudomonas aeruginosa type 1 is a clinical, smooth strain isolate serotyped by using the scheme of Homma, Japan. J. Exp. Med. 46, 329–336 (1976) and maintained in the lab by monthly transfer on blood agar plates. E. coli J96, IA2, and H5 are smooth strain, uropathogenic clinical isolates kindly maintained and provided by J. R. Johnson and described in Johnson et al., J. Infect. Disease 173, 920–926 (1996) for J96 and IA2 and in Johnson et al., J. Infect. Disease 173, 746–749 (1996) for H5. J5 is an E. coli rough strain initially referenced by G. R. Siber and discussed in Warren et al., Infect. Immunity 55, 1668–1673 (1987) and is analogous to the smooth strain E. coli 0111:B4 used in the BioWhittaker LAL endotoxin detection and quantitation kit described below. Gram-positive MN8 and MNHO are two patient isolates of Staphylococcus aureus, which were kindly provided by P. M. Schlievert and described in Bohach et al., Rev. Infect. Diseases 11, 75–82 (1989) for MNHO and in Schlievert et al., J. Infect. Diseases 147, 236–242 (1983) for MN8. All cultures are maintained on nutrient agar plates.
(§2) Pyrogen-free solutions were used throughout the assay. Log phase bacteria were obtained by transferring an overnight culture or scraping crystals off −85° C. glycerol stocks of overnight cultures. Bacteria were washed and resuspended in 0.9% sodium chloride with adjustment to an optical density at 650 nm which yields 3×10^8 CFU/ml. Bacteria were then diluted 1:10 in 0.08 M citrate phosphate buffer, pH 7.0 (prepared by mixing 0.08 M citric acid with 0.08 M dibasic sodium phosphate). Bacteria (0.15 ml) were incubated with peptide in a final volume of 1.0 ml of buffer. The assay was done in 17×100 polypropylene tubes in a reciprocal water bath shaker at 37° C. for 30 minutes. Following this 30 minute (min) incubation, 10-fold dilutions were made in 0.9% sodium chloride. Dilutions were done to 10^−4 and 20 μl of each dilution was streaked across an agar plate. Gram-positive organisms were plated on nutrient agar plates containing 2% agar and Gram-negative organisms were plated on MacConkey agar (2%). Plates were incubated overnight at 37° C. and counted the next morning. The dilution containing 10–100 bacteria was counted and the number multiplied by 50 to adjust all counts to the number bacteria killed per milliliter. Peptide concentrations were converted to logarithm base ten and graphed. Bactericidal activity was determined by dose response where LD50 values were determined by best fits of a sigmoidal curve to the dose response data.

[2] = test system: Staphylococcus aureus MNHO; test: Bactericidal assay, Gram-positive S. aureus MNHO; type: cell-based; settings: Table 4; SC-4 variants; SD about ±30%
Text: as §1, §2

E. coli J5 = test: Bactericidal assay, rough strain E. coli J5; type: cell-based; settings: for LD50 bactericidal activity, Gram-neg. rough J5: Table 4, SC-4 variants, SD about ±30%
Text: as §1, §2

E. coli J96 = type: cell-based; settings: J96
Text: as §1
as §2, with “The assay was done in 17×100 polypropylene tubes in a reciprocal water bath shaker at 37° C. for 30 minutes. Following this 30 minute (min) incubation, 10-fold dilutions were made in 0.9% sodium chloride. Dilutions were done to 10^−4 and 20 μl of each dilution was streaked across an agar plate. Gram-positive organisms were plated on nutrient agar plates containing 2% agar and Gram-negative organisms were plated on MacConkey agar (2%).” left out, “Peptide concentrations were converted to logarithm base ten and graphed.” left out

bacteria = settings: Alvarez-Bravo et al. 1995; cited from earlier work
[3] = Table 4, SC-4 variants, SD about ±30%, read-out: LPS neutralization IC50
[4] = read-out: IC50 LPS neutralization

Row | Substance | hemolysis (Human red blood cells; 1e-4 M) | IC50 (E. coli 055:B5 LPS; [3]) | LD50 bactericidal activity, Gram-neg. smooth P.a. [1] | LD50 bactericidal activity, Gram-positive MNHO [2] | LD50 bactericidal activity, Gram-neg. rough J5 (E. coli J5) | also measured
1 | ANIKLSVQMKLF-NH2 [SC-1, ANIKLSVQMKLF] | around 70% | – | – | – | – | hemolysis (Human red blood cells; 1e-6 M): 15-30%
2 | ANIKLSVQMKLFKRHLKWKIIVKLNDGRELSLD-NH2 [βpep-25, reference compound] | about 5% | – | – | – | – | –
3 | K L F K K H L K W K I I-NH2 [SC-408] | – | 1000 µM | 0.07 10^−6 M | 2 10^−6 M | 0.003 10^−6 M | LPS neutralization in words (E. coli 055:B5 LPS): does not affect LPS binding; drop in LPS neutralizing activity relative to SC-4 (E. coli 055:B5 LPS): about 500 fold
4 | K L F K R H L K W X I I-NH2 [SC-407] | – | 3 µM | 0.05 10^−6 M | 1 10^−6 M | 0.007 10^−6 M | LPS neutralization in words (E. coli 055:B5 LPS): essentially no affect
5 | K L F K R H L X W K I I-NH2 [SC-406] | – | 3 µM | 0.05 10^−6 M | 2 10^−6 M | 0.005 10^−6 M | LPS neutralization in words (E. coli 055:B5 LPS): essentially no affect
6 | K L F K X H L K W K I I-NH2 [SC-409] | – | 3 µM | 0.22 10^−6 M | 0.3 10^−6 M | 0.001 10^−6 M | LPS neutralization in words (E. coli 055:B5 LPS): nearly full activity
7 | K L F X R H L K W K I I-NH2 [SC-405] | – | 7 µM | 0.17 10^−6 M | 0.4 10^−6 M | 0.006 10^−6 M | drop in LPS neutralizing activity relative to SC-4 (E. coli 055:B5 LPS): about 3 fold
8 | KIIVKLNDGREL-NH2 [SC-7, KIIVKLNDGREL] | ~15% | – | – | – | – | –
9 | KLFKRHLKWKII-NH2 [SC-4, KLFKRHLKWKII] | ~10% | – | – | – | – | LD50 (E. coli J96): 250 nM; LD50 (E. coli J5; against J5 (Gram-negative bacteria)): 3 nM; concentration below which not hemolytic (Human red blood cells): ≥ 10^−4 M
10 | KLKLLLLLKLK-NH2 [antibacterial peptide of the literature forming channels in bacterial membranes] | – | – | – | – | – | effective antibacterial concentration (bacteria): 100 µM
11 | KLSVQMKLFKRH-NH2 [SC-2, KLSVQMKLFKRH] | ~15% | – | – | – | – | –
12 | KRHLKWKIIVKL-NH2 [SC-5, KRHLKWKIIVKL] | around 70% | – | – | – | – | hemolysis (Human red blood cells; 1e-6 M): 15-30%
13 | LKWKIIVKLNDG-NH2 [SC-6, LKWKIIVKLNDG] | ~15% | – | – | – | – | –
14 | MKLFKRHLKWKI [SC-402, M K L F K R H L K W K I-NH2] | – | 25 µM | 0.07 10^−6 M | 6 10^−6 M | 0.005 10^−6 M | drop in LPS neutralizing activity relative to SC-4 (E. coli 055:B5 LPS): 12 fold; IC50 (E. coli 055:B5 LPS; [4]): 25 µM
15 | MKLFKRHLKWKIIV [SC-403, M K L F K R H L K W K I I V-NH2] | – | 6 µM | 0.05 10^−6 M | 0.4 10^−6 M | 0.002 10^−6 M | –
16 | QMKLFKRHLKWK [SC-401, Q M K L F K R H L K W K-NH2] | – | – | 0.06 10^−6 M | XXX (XXX means not active at concentrations below 1 × 10^−5 M.) | 0.004 10^−6 M | drop in LPS neutralizing activity relative to SC-3 (E. coli 055:B5 LPS): 5 fold; drop in LPS neutralizing activity relative to SC-4 (E. coli 055:B5 LPS): 60 fold; IC50 (E. coli 055:B5 LPS; [4]): 126 µM
17 | VKLNDGRELSLD-NH2 [SC-8, VKLNDGRELSLD] | ~10% | – | – | – | – | –
18 | VQMKLFKRHLKW-NH2 [SC-3, VQMKLFKRHLKW] | ~10% | – | – | – | – | –
19 | X L F K R H L K W K I I-NH2 [SC-404] | – | 7 µM | 0.22 10^−6 M | 1 10^−6 M | 0.004 10^−6 M | drop in LPS neutralizing activity relative to SC-4 (E. coli 055:B5 LPS): about 3 fold
